According to patent US20250346593A1, “IMIDAZO(1,2-1)PYRIDINE DERIVATIVES AS RIPK2 INHIBITORS” (Interline Therapeutics, Inc., priority 2022, published 2025):
Read-outs that look alike come from different tables or passages of the source.

Key:
[1] = test system: NF-κB pathway (SEAP) in THP1-Dual cells; experiment: THP-1 Dual cell SEAP assay (L18-MDP stimulated); type: cell-based; settings: read-out: NFkB THP1 IC50
[2] = target: GST-RIPK2 fusion protein (human RIPK2 amino acids 1-310) (Homo sapiens (Human), UniProt O43353); experiment: RIPK2 binding competition assay (TR-FRET, Tracer 199)
[3] = read-out: RIPK2 IC50, RIPK2 binding competition assay

Sequence of GST-RIPK2 fusion protein (human RIPK2 amino acids 1-310) (O43353 1-310): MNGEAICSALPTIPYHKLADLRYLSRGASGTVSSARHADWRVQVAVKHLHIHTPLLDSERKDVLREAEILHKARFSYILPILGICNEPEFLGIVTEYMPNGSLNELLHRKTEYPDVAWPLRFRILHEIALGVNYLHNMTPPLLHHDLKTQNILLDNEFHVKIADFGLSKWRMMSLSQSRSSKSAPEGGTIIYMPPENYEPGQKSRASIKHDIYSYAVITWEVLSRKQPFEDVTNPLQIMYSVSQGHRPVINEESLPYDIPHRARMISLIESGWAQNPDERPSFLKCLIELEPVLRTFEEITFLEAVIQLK

SMILES	IC50 ([1]; Homo sapiens, THP1-Dual)	IC50 [2, 3]	IC50 [2]	IC50 [1]
COc1cc2ncc(-c3cc(F)c(N)nc3F)n2cc1S(=O)(=O)C(C)(C)CF [Example 123, 3,6-difluoro-5-[5-(2-fluoro-1,1-dimethylethylsulfonyl)-6-methoxy-1,3a-diaza-3-indenyl]-2-pyridylamine]	> 1000 nM	> 20 nM		
COc1cc2ncc(-c3cc(N)c(=O)n(C)c3)n2cc1S(=O)(=O)C(C)(C)C [Example 7, 3-amino-5-(6-(tert-butylsulfonyl)-7-methoxyimidazo[1,2-a]pyridin-3-yl)-1-methylpyridin-2(1H)-one]	250 to 1000 nM		2.5 to 20 nM	
CCCS(=O)(=O)Nc1cc(-c2cnc3cc(OC)c(S(=O)(=O)C(C)(C)C)cn23)cc(F)c1OCC [Example 270, N-(5-(6-(tert-butylsulfonyl)-7-methoxyimidazo[1,2-a]pyridin-3-yl)-2-ethoxy-3-fluorophenyl)propane-1-sulfonamide]	250 to 1000 nM		1 to 2.5 nM	
COc1cc2ncc(-c3ccc(N4CCOCC4)nc3F)n2cc1S(=O)(=O)C(C)(C)C [Example 101, 4-(5-(6-(tert-butylsulfonyl)-7-methoxyimidazo[1,2-a]pyridin-3-yl)-6-fluoropyridin-2-yl)morpholine]	> 1000 nM	> 20 nM		
COc1cc2ncc(-c3cc(F)nc(NC[C@@H](F)CO)c3)n2cc1S(=O)(=O)C(C)(C)C [Example 229, (2R)-2-fluoro-3-({6-fluoro-4-[7-methoxy-6-(2-methylpropane-2-sulfonyl)imidazo[1,2-a]pyridin-3-yl]pyridin-2-yl}amino)propan-1-ol]	< 50 nM	< 1 nM		
CCOc1cc2ncc(-c3cnc(N)c(F)c3)n2cc1S(=O)(=O)C(C)C [Example 117, 5-[6-ethoxy-5-(isopropylsulfonyl)-1,3a-diaza-3-indenyl]-3-fluoro-2-pyridylamine]	> 1000 nM	> 20 nM		
COc1cc2ncc(-c3cnc(N)nc3)n2cc1S(=O)(=O)C(C)(C)C [Example 93, 5-(6-(tert-butylsulfonyl)-7-methoxyimidazo[1,2-a]pyridin-3-yl)pyrimidin-2-amine]	> 1000 nM	> 20 nM		
CCS(=O)(=O)Nc1cccc(-c2cnc3cc(OC)c(S(=O)(=O)C(C)(C)C)cn23)c1 [Example 276, N-(3-(6-(tert-butylsulfonyl)-7-methoxyimidazo[1,2-a]pyridin-3-yl)phenyl)ethanesulfon-amide]		2.5 to 20 nM		250 to 1000 nM
COc1cc2ncc(-c3cc(F)c(N)nc3OC(C)C)n2cc1S(=O)(=O)C(C)(C)C [Example 113, 5-(6-(tert-butylsulfonyl)-7-methoxyimidazo[1,2-a]pyridin-3-yl)-3-fluoro-6-isopropoxypyridin-2-amine]	> 1000 nM	> 20 nM		
COc1cc2ncc(-c3cc(F)nc(NCCCO)c3)n2cc1C(=O)N(C)C [Example 248, 3-{2-fluoro-6-[(3-hydroxypropyl)amino]pyridin-4-yl}-7-methoxy-N,N-dimethylimidazo[1,2-a]pyridine-6-carboxamide]	50 to 250 nM		2.5 to 20 nM	
COc1cc2ncc(-c3cc(C#N)c(OC)c(NS(C)(=O)=O)c3)n2cc1S(=O)(=O)C(C)(C)C [Example 260, N-(5-(6-(tert-butylsulfonyl)-7-methoxyimidazo[1,2-a]pyridin-3-yl)-3-cyano-2-methoxyphenyl)methane-sulfonamide]	> 1000 nM		2.5 to 20 nM	
COc1cc2ncc(-c3cc(F)nc(N(C)CCCO)c3)n2cc1S(=O)(=O)C(C)(C)C [Example 209, 3-((4-(6-(tert-butylsulfonyl)-7-methoxyimidazo[1,2-a]pyridin-3-yl)-6-fluoropyridin-2-yl)(methyl)amino) propan-1-ol]	50 to 250 nM		1 to 2.5 nM	
COc1cc2ncc(-c3ccc(N)cc3)n2cc1S(=O)(=O)C(C)(C)C [Example 18, 4-(6-(tert-butylsulfonyl)-7-methoxyimidazo[1,2-a]pyridin-3-yl)aniline]	> 1000 nM	> 20 nM		
COc1cc2ncc(-c3cc(NCCCO)c(=O)n(C)c3)n2cc1S(=O)(=O)C(C)(C)C [Example 125, 5-(6-(tert-butylsulfonyl)-7-methoxyimidazo[1,2-a]pyridin-3-yl)-3-((3-hydroxypropyl)amino)-1-methylpyridin-2(1H)-one]	50 to 250 nM		2.5 to 20 nM	
CCOc1ncc(-c2cnc3cc(OC)c(S(=O)(=O)C(C)(C)C)cn23)s1 [Example 62, 5-(6-(tert-butylsulfonyl)-7-methoxyimidazo[1,2-a]pyridin-3-yl)-2-ethoxythiazole]	> 1000 nM	> 20 nM		
COc1cc2ncc(-c3cc(F)nc(N[C@@H](C)CCO)c3)n2cc1S(=O)(=O)C(C)(C)C [Example 236, (3S)-3-({6-fluoro-4-[7-methoxy-6-(2-methylpropane-2-sulfonyl)imidazo[1,2-a]pyridin-3-yl]pyridin-2-yl}amino)butan-1-ol]	< 50 nM	< 1 nM		

SMILES	IC50 ([1]; Homo sapiens, THP1-Dual)	IC50 [2, 3]	IC50 [2]	IC50 [1]
CCCS(=O)(=O)Nc1cc(OC)cc(-c2cnn3ccc(S(=O)(=O)C(C)(C)C)cc23)c1 [Example 283, N-(3-(5-(tert-butylsulfonyl)pyrazolo[1,5-a]pyridin-3-yl)-5-methoxyphenyl)propane-1-sulfonamide]	250 to 1000 nM		2.5 to 20 nM	
COc1cc2ncc(-c3cnc(N)c(N)n3)n2cc1S(=O)(=O)C(C)(C)C [Example 128, 5-(6-(tert-butylsulfonyl)-7-methoxyimidazo[1,2-a]pyridin-3-yl)pyrazine-2,3-diamine]	> 1000 nM	> 20 nM		
COc1cc2ncc(-c3cc(N)cc(C#N)c3)n2cc1S(=O)(=O)C(C)(C)C [Example 41, 3-amino-5-(6-(tert-butylsulfonyl)-7-methoxyimidazo[1,2-a]pyridin-3-yl)benzonitrile]	50 to 250 nM		2.5 to 20 nM	
COc1cc2ncc(-c3cc(F)nc(N[C@H]4CCCC[C@@H]4O)c3)n2cc1S(=O)(=O)C(C)(C)C (single isomer, unassigned) [Example 245, trans-(15,2S or 1R,2R)-2-({6-fluoro-4-[7-methoxy-6-(2-methylpropane-2-sulfonyl)imidazo[1,2-a]pyridin-3-yl]pyridin-2-yl}amino)cyclohexan-1-ol]	250 to 1000 nM		2.5 to 20 nM	
COc1cc2ncc(-c3cc(F)nc(N[C@H]4C[C@H](O)C4)c3)n2cc1S(=O)(=O)C(C)(C)C [Example 193, (1r,3r)-3-((4-(6-(tert-butylsulfonyl)-7-methoxyimidazo[1,2-a]pyridin-3-yl)-6-fluoropyridin-2-yl)amino)cyclobutan-1-ol]	< 50 nM	< 1 nM		
COc1cc2ncc(-c3ccc(N)nc3C#N)n2cc1S(=O)(=O)C(C)(C)C [Example 108, 6-amino-3-(6-(tert-butylsulfonyl)-7-methoxyimidazo[1,2-a]pyridin-3-yl)picolinonitrile]	> 1000 nM	> 20 nM		
CCCS(=O)(=O)Nc1cc(OC(F)F)cc(-c2cnc3cc(OC)c(S(=O)(=O)C(C)(C)C)cn23)c1 [Example 295, N-(3-(6-(tert-butylsulfonyl)-7-methoxyimidazo[1,2-a]pyridin-3-yl)-5-(difluoromethoxy)phenyl) propane-1-sulfonamide]	50 to 250 nM		1 to 2.5 nM	
CNc1ncc(-c2cnc3cc(OC)c(S(=O)(=O)C(C)(C)C)cn23)cc1F [Example 94, 5-(6-(tert-butylsulfonyl)-7-methoxyimidazo[1,2-a]pyridin-3-yl)-3-fluoro-N-methylpyridin-2-amine]	> 1000 nM	> 20 nM		
CCS(=O)(=O)Nc1cc(-c2cnc3cc(OC)c(S(=O)(=O)C(C)(C)C)cn23)cc(F)c1OC [Example 294, N-(5-(6-(tert-butylsulfonyl)-7-methoxyimidazo[1,2-a]pyridin-3-yl)-3-fluoro-2-methoxyphenyl)ethane-sulfonamide]	< 50 nM		< 1 nM	
COc1cc2ncc(-c3cc(N)cc(S(C)(=O)=O)c3)n2cc1S(=O)(=O)C(C)(C)C [Example 37, 3-(6-(tert-butylsulfonyl)-7-methoxyimidazo[1,2-a]pyridin-3-yl)-5-(methylsulfonyl)aniline]	> 1000 nM	> 20 nM		
CCCS(=O)(=O)Nc1cc(-c2cnc3cc(OC)c(S(=O)(=O)C(C)(C)C)cn23)cn(C)c1=O [Example 124, N-(5-(6-(tert-butylsulfonyl)-7-methoxyimidazo[1,2-a]pyridin-3-yl)-1-methyl-2-oxo-1,2-dihydropyridin-3-yl)propane-1-sulfonamide]	> 1000 nM		2.5 to 20 nM	
COc1cc2ncc(-c3cc(NCCCO)cc(F)n3)n2cc1S(=O)(=O)C(C)(C)C [Example 252, 3-((2-(6-(tert-butylsulfonyl)-7-methoxyimidazo[1,2-a]pyridin-3-yl)-6-fluoropyridin-4-yl)amino)propan-1-ol]	250 to 1000 nM	> 20 nM		
COc1cc(N)ncc1-c1cnc2cc(OC)c(S(=O)(=O)C(C)(C)C)cn12 [Example 78, 5-(6-(tert-butylsulfonyl)-7-methoxyimidazo[1,2-a]pyridin-3-yl)-4-methoxypyridin-2-amine]	> 1000 nM	> 20 nM		
CCCS(=O)(=O)Nc1nc(-c2cnc3cc(OC)c(S(=O)(=O)C(C)(C)C)cn23)ccc1CC [Example 160, N-(6-(6-(tert-butylsulfonyl)-7-methoxyimidazo[1,2-a]pyridin-3-yl)-3-ethylpyridin-2-yl)propane-1-sulfonamide]	> 1000 nM	> 20 nM		
COc1cc2ncc(-c3cnc(N)c(N)c3)n2cc1S(=O)(=O)C(C)(C)C [Example 31, 5-(6-(tert-butylsulfonyl)-7-methoxyimidazo[1,2-a]pyridin-3-yl)pyridine-2,3-diamine]	> 1000 nM	> 20 nM		
CCOc1cc2ncc(-c3cc(F)nc(NCCC(O)CC)c3)n2cc1S(=O)(=O)C(C)C (racemic) [Example 246, Rac-1-({4-[7-ethoxy-6-(propane-2-sulfonyl)imidazo[1,2-a]pyridin-3-yl]-6-fluoropyridin-2-yl}amino)pentan-3-ol]	< 50 nM		< 1 nM	
